The text below walks through data of patent US20110098323A1, “INHIBITORS OF BACTERIAL BIOFILM FORMATION” (MICROBIOTIX, INC., priority 2009, published 2011).

Read-outs that look alike come from different tables or passages of the source.

The term MIC denotes the lowest concentration that inhibits growth of the organism.

Holding throughout (test): MBIC/MIC secondary assay
One assay relates to S. aureus strain NRS-123. It is filed as cell-based, Staphylococcus aureus. To be noted: for MIC: Staphylococcus aureus, NRS123. The protocol: (§1) Assays for detecting and measuring bacterial biofilm formation are known in the art. An example of a biofilm formation assay useful in detecting and characterizing biofilm inhibitor compounds is described in Example 1, infra. Briefly, bacterial cells are inoculated into growth medium in individual wells of a 96-well assay plate in the presence or absence of a compound (known biofilm inhibitor or test compound). After incubation for a specified time, growth medium and non-biofilm bacterial cells are removed from each of the wells. The bacterial cells in any biofilms that are adhered to the surface of a well are fixed by addition of ethanol. The ethanol is removed, and the fixed biofilm bacteria cells are stained with crystal violet (CV). The intensity of CV staining is directly correlated with bacterial biofilm formation and is measured in the wells by reading the optical density at 600 nm (OD600). The difference in biofilm formation between untreated control and treated cultures provides an indication of relative biofilm inhibition activity (anti-biofilm activity). Use of different concentrations of an inhibitor in multiple and otherwise duplicate cultures permits determination of a compound's Minimal Biofilm Inhibitory Concentration (MBIC), which is defined herein as the lowest concentration of a compound that inhibits biofilm formation by at least 80% (i.e., ≧80%) compared to untreated control cultures.
(§2) A higher throughput was achieved by formatting the assay for use in flat-bottomed 96-well assay plates (Costar 3590 assay plates, Corning Life Sciences, Lowell, Mass.). The biofilm cultures grew on the bottoms of each well in a surface attached mode. In each assay plate, columns 1 and 12 contained untreated cultures, which served as negative controls (0% biofilm inhibition). Each of the assay wells in columns 2-11 contained a unique small molecule from the Microbiotix Screening Library (MSL) at a final concentration of 100 μM. Assay plates were inoculated with 200 μl/well of a culture of Staphylococcus pidermidis 18972 in 0.5×Tryptic Soy Broth (TSB; Becton Dickinson, Franklin Lakes, N.J.) in which the concentration of glucose was adjusted to 0.25% (w/v). The bacterial inocula were prepared by making a 1:100 dilution of an overnight culture grown in TSB in the media used for the screen. After inoculation, assay plates were sealed with foil tape and incubated at 37° C. for 18-20 hours (h). The optical density at 600 nm (OD600) was measured for each well using a VICTOR2V™ multiplate reader (Perkin Elmer, Waltham, Mass.) in order to quantify overall bacterial growth. The assay plates were processed to remove bacterial growth media and non-biofilm cells from the bottom of each assay well. This was accomplished by using a BioTek ELx405™ plate washer (BioTek Instruments, Inc., Winooski, Vt.). Biofilm bacteria were fixed by addition of 50 μl of 95% ethanol for 30 minutes (min). The ethanol was removed, and the fixed biofilm cultures were stained with 50 μl of 0.06% crystal violet (CV) for 60 min. Excess CV was removed by repeated washes using the BioTek ELx405™ plate washer. The amount of CV bound to each assay well was quantified by measuring OD600 using a VICTOR2V™ plate reader (Perkin Elmer).
(§3) A secondary assay provided a quantitative measure of both anti-biofilm activity and antibacterial activity in terms of the Minimal Biofilm Inhibitory Concentration (MBIC) and the Minimal Inhibitory Concentration (MIC), respectively. The MBIC and MIC are defined as the lowest compound concentrations that inhibit biofilm formation and bacterial growth, respectively, by at least 80% (i.e., ≧80%). The MBIC/MIC assay is formatted in a manner that is similar to the Microbroth dilution assays described by the Clinical and Laboratory Standards Institute (CLSI; formerly NCCLS) in protocol M7-A7. The growth conditions were optimized for biofilm growth in 96-well assay plates such that the resulting CV staining was within the linear range of detection. […]

The subject of assay [1] is methicillin-susceptible S. aureus (MSSA). The format is cell-based, Staphylococcus aureus. To be noted: for MIC: Staphylococcus aureus. The protocol: as §1, §2, §3
Assay [2] relates to S. epidermidis strain O47. The format is cell-based, Staphylococcus epidermidis. To be noted: for MIC: Staphylococcus epidermidis. How it is done: as §1, §2, §3
Assay [3] concerns S. epidermidis strain 1457. The format is cell-based, Staphylococcus epidermidis. The conditions noted are these: for MIC: Staphylococcus epidermidis. The protocol: as §1, §2, §3
Assay [4] has as its system S. epidermidis strain 35894. The format is cell-based, Staphylococcus epidermidis. The conditions noted are these: for MIC: Staphylococcus epidermidis. The protocol:
as §1, §2, §3

As for `CCOc1cc(/C=C2\SC(=S)N(c3ccc(F)cc3)C2=O)ccc1O` [Compound 4, 3-(4-fluorophenyl)-5-(3-ethoxy-4-hydroxybenzylidene)-2-thioxothiazolidin-4-one], the MBIC in the assay on S. aureus strain NRS-123 (S. aureus strain NRS-123) turned out to be 25 µM; in assay [1] (S. aureus strain MSSA), 12.5 µM; in assay [2] (S. epidermidis strain O47), 12.5 µM; in assay [3] (S. epidermidis strain 1457), 50 µM; in assay [4] (S. epidermidis strain 35894), 25 µM. Further, the MIC (against S. aureus strain NRS-123; in assay [1] (MSSA); in assay [2] (O47); in assay [3] (1457); in assay [4] (35894)) was ≥ 100 µM throughout.
Turning to `CCOc1cc(/C=C2\SC(=S)N(c3cccc(F)c3)C2=O)ccc1O` [Compound 8, 3-(3-fluorophenyl)-5-(3-ethoxy-4-hydroxybenzylidene)-2-thioxothiazolidin-4-one], the MBIC with S. aureus strain NRS-123 (S. aureus strain NRS-123) was determined as 25 µM; in assay [1] (S. aureus strain MSSA), 25 µM; in assay [2] (S. epidermidis strain O47), 25 µM; in assay [3] (S. epidermidis strain 1457), 50 µM; in assay [4] (S. epidermidis strain 35894) it was 25 µM. The MIC (in the assay with S. aureus strain NRS-123; in assay [1] (MSSA); in assay [2] (O47); in assay [3] (1457); in assay [4] (35894)) was ≥ 100 µM in each case.
As to `C=CCOc1cc(/C=C2\SC(=S)N(c3ccc(F)cc3)C2=O)ccc1O` [Compound 29, 3-(4-fluorophenyl)-5-(3-allyloxy-4-hydroxybenzylidene)-2-thioxothiazolidin-4-one], the MBIC was 25 µM with S. aureus strain NRS-123 (S. aureus strain NRS-123); 12.5 µM in assay [1] (S. aureus strain MSSA); 12.5 µM in assay [2] (S. epidermidis strain O47); 25 µM in assay [3] (S. epidermidis strain 1457); 25 µM in assay [4] (S. epidermidis strain 35894). Also, the minimal inhibitory concentration (MIC) with S. aureus strain NRS-123 (S. aureus strain NRS-123, read-out: MIC) is ≥ 100 µM; in assay [1] (S. aureus strain MSSA, read-out: MIC), ≥ 100 µM; in assay [2] (S. epidermidis strain O47, read-out: MIC), ≥ 100 µM; in assay [3] (S. epidermidis strain 1457, read-out: MIC), ≥ 100 µM; in assay [4] (S. epidermidis strain 35894, read-out: MIC) it was ≥ 100 µM.
For the molecule `CCOc1cc(/C=C2\SC(=S)N(c3cccc(C#N)c3)C2=O)ccc1O` [Compound 34, 3-(3-cyanophenyl)-5-(3-ethoxy-4-hydroxybenzylidene)-2-thioxothiazolidin-4-one], the MBIC was 25 µM with S. aureus strain NRS-123 (S. aureus strain NRS-123); 12.5 µM in assay [1] (S. aureus strain MSSA); 1.6 µM in assay [2] (S. epidermidis strain O47); “≧100 μM” in assay [3] (S. epidermidis strain 1457); 12.5 µM in assay [4] (S. epidermidis strain 35894). For the same molecule, the MIC (against S. aureus strain NRS-123; in assay [1] (MSSA); in assay [2] (O47); in assay [3] (1457); in assay [4] (35894)) was ≥ 100 µM each time.
Consider `CCOc1cc(/C=C2\SC(=S)N(c3cccnc3)C2=O)ccc1O` [Compound 36, 3-(pyridin-3-yl)-5-(3-ethoxy-4-hydroxybenzylidene)-2-thioxothiazolidin-4-one], for which the MBIC was 12.5 µM in the assay on S. aureus strain NRS-123 (S. aureus strain NRS-123); 12.5 µM in assay [1] (S. aureus strain MSSA); 50 µM in assay [2] (S. epidermidis strain O47); 12.5 µM in assay [3] (S. epidermidis strain 1457); 12.5 µM in assay [4] (S. epidermidis strain 35894). The MIC (against S. aureus strain NRS-123; in assay [1] (MSSA); in assay [2] (O47); in assay [3] (1457); in assay [4] (35894)) was ≥ 100 µM throughout.
With `CCOc1cc(/C=C2\SC(=S)N(c3ccc(F)nc3)C2=O)ccc1O` [Compound 40, 3-(6-fluoropyridin-3-yl)-5-(3-ethoxy-4-hydroxybenzylidene)-2-thioxothiazolidin-4-one], the MBIC turned out to be 50 µM with S. aureus strain NRS-123 (S. aureus strain NRS-123); 6.3 µM in assay [1] (S. aureus strain MSSA); 6.3 µM in assay [2] (S. epidermidis strain O47); 25 µM in assay [3] (S. epidermidis strain 1457); 6.3 µM in assay [4] (S. epidermidis strain 35894). Further, the MIC (in the assay on S. aureus strain NRS-123; in assay [1] (MSSA); in assay [2] (O47); in assay [3] (1457); in assay [4] (35894)) was ≥ 100 µM in each case.
